According to patent publication US10966979B2 (Sandoz AG, priority 2017, dated 2021):

What was measured:
[1] = Accelerated stress test at 40° C./75% RH (physical stability by powder X-ray diffraction and visual control of consistency); type: physicochemical
Experimental: Powder X-ray diffraction was performed with a PANalytical X'Pert PRO diffractometer equipped with a theta/theta coupled goniometer in transmission geometry, Cu-Kalpha1,2 radiation (wavelength 0.15419 nm) with a focusing mirror and a solid state PIXcel detector. Diffractograms were recorded at a tube voltage of 45 kV and a tube current of 40 mA, applying a stepsize of 0.013° 2-Theta with 40 s per step (255 channels) in the angular range of 2° to 40° 2-Theta at ambient conditions.
Example 2: Accelerated Stress Test at 40° C./75% RH With Solid Dispersions Comprising Amorphous Elagolix Sodium and at Least One Silicon-Based Inorganic Compound in a 1:1 Weight Ratio vs. Neat Elagolix Sodium
The physical stability against moisture and temperature stress has been tested for different solid dispersions comprising amorphous elagolix sodium and at least one silicon-based inorganic compound and for neat amorphous elagolix. For this purpose, the solid dispersions were stored open at accelerated stress conditions of 40° C. and 75% RH for 1, 3 and 6 weeks respectively. The physical stability has been investigated by means of powder X-ray diffraction and the consistency of the samples was visually controlled.

[2] = Behaviour of elagolix sodium upon moisture contact (hygroscopicity, deliquescence); type: physicochemical; details: no further conditions given
Excerpt: Said properties require special care and precautionary measures such as a controlled atmosphere during pharmaceutical processing, which renders manufacturing cumbersome and expensive. […] Such formulations may negatively influence patients' compliance, in particular for elderly people having troubles swallowing.
As used herein the term “deliquescent” means the property of a solid form of a compound to readily absorb moisture form the surrounding atmosphere until it deliquesces and forms a solution upon storage for 14 days at 40° C., atmospheric pressure and 75% relative humidity.

COc1cccc(-c2c(C)n(Cc3c(F)cccc3C(F)(F)F)c(=O)n(C[C@H](NCCCC(=O)O)c3ccccc3)c2=O)c1F [elagolix Na, 4-[[(1R)-2-[5-(2-fluoro-3-methoxyphenyl)-3-[[2-fluoro-6-(trifluoromethyl)phenyl]methyl]-3,6-dihydro-4-methyl-2,6-dioxo-1(2H)-pyrimidinyl]-1-phenylethyl]amino]butanoic acid]
consistency / deliquescence during the stress test ([1]; accelerated stress conditions of 40° C. and 75% RH, up to 6 weeks): deliquesced fairly quickly
Initial sample ([1]; solid state and consistency before storage, PXRD and visual control): amorphous solid
1 week at 40° C./75% RH ([1]; stored open, 1 week, 40° C., 75% RH, PXRD and visual control): deliquescence
hygroscopicity / deliquescence upon moisture contact ([2]; listed as elagolix sodium): highly hygroscopic
hygroscopicity / deliquescence upon moisture contact ([2]; listed as neat amorphous elagolix sodium): deliquesces fairly quickly
